Each structure is given as a SMILES string.

Sequence of Growth hormone secretagogue receptor type 1 (Q92847 whole entry): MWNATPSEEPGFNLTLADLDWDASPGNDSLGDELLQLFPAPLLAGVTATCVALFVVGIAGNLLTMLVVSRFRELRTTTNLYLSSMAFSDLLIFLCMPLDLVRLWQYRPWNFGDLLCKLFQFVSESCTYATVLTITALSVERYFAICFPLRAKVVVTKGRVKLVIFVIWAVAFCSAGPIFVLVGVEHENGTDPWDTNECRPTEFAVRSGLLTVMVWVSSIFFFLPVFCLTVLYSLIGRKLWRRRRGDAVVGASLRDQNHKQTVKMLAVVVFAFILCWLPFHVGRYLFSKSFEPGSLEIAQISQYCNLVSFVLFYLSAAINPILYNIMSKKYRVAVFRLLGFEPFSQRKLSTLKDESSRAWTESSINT

The experiment addresses Growth hormone secretagogue receptor type 1 (Homo sapiens, UniProt Q92847). In words: ChEBML_72507. The source says: Inhibition of ghrelin binding to Growth hormone secretagogue receptor expressed in BHK cells
Regarding `CN(C)C(=O)CCn1c(O)c(CCc2ccccc2)n(Cc2ccc(-c3ccccc3-c3nnn[nH]3)cc2)c1=O` [3-{(S)-2,5-Dioxo-4-phenethyl-3-[2'-(2H-tetrazol-5-yl)-biphenyl-4-ylmethyl]-imidazolidin-1-yl}-N,N-dimethyl-propionamide], the concentration for half-maximal inhibition (IC50) is over 100 µM.

`NCCCn1c(O)c(CCc2ccccc2)n(Cc2ccc(-c3ccccc3-c3nnn[nH]3)cc2)c1=O` [(S)-3-(3-Amino-propyl)-5-phenethyl-1-[2'-(2H-tetrazol-5-yl)-biphenyl-4-ylmethyl]-imidazolidine-2,4-dione] showed a 50% inhibitory concentration (IC50) of over 100 µM.

In turn, `CN(C)CCCn1c(O)c(-c2ccccc2)n(Cc2ccc(-c3ccccc3-c3nnn[nH]3)cc2)c1=S` [(S)-3-(3-Dimethylamino-propyl)-5-phenyl-1-[2'-(2H-tetrazol-5-yl)-biphenyl-4-ylmethyl]-2-thioxo-imidazolidin-4-one] gave an IC50 of 35 µM.

Molecule `CN(C)c1ccc(-n2c(O)c(CCc3ccccc3)n(Cc3ccc(-c4ccccc4-c4nnn[nH]4)cc3)c2=S)cc1` [(S)-3-(4-Dimethylamino-phenyl)-5-phenethyl-1-[2'-(2H-tetrazol-5-yl)-biphenyl-4-ylmethyl]-2-thioxo-imidazolidin-4-one] showed an IC50 of over 100 µM.

The molecule `CN(C)CCCn1c(O)c(Cc2ccccc2)n(Cc2ccc(-c3ccccc3-c3nnn[nH]3)cc2)c1=S` [(S)-5-Benzyl-3-(3-dimethylamino-propyl)-1-[2'-(2H-tetrazol-5-yl)-biphenyl-4-ylmethyl]-2-thioxo-imidazolidin-4-one] came in with an IC50 of 35 µM.

For orientation: IC50 means the concentration needed to halve the response being measured. Lower therefore signals greater potency in that assay.

These data come from BindingDB's records for doi:10.1016/j.bmcl.2003.11.012 (Novo Nordisk, 2003).
